Data: patent US20130174483A1, “PLANT ARTIFICIAL SEEDS AND METHODS FOR THE PRODUCTION THEREOF” (E I DU PONT DE NEMOURS AND COMPANY, priority 2011, published 2013)

Tested on: sugarcane plantlet, cultivar CPO-1372
Details: in vivo
Description: Wax paper containers were cut into 4 cm and 7 cm lengths. One open end of each container was secured with either a 38 um thick LDL film, prepared as described in Example 25, or a 254 um thick soybean oil gel film. The latter was prepared by dissolving Kraton® A1535 poly(styrene-b-ethylene-co-butylene-co-styrene-b-styrene) triblock polymer in soybean oil (MP Biomedicals, Solon, Ohio) at 9 wt. % and 155° C., and casting the hot solution on a glass substrate using a doctor blade with a 5 cm wide and 254 um thick gap, preheated to 155° C. Upon cooling to room temperature, the physical gelation of the triblock polymer in the oil yielded a solid, but highly deformable film. LDL film was affixed to the wax paper container using a thin layer of cyanoacrylate adhesive (Sigma-Aldrich, St. Louis, Mo.). Soybean oil gel film was affixed by heating the film, still adhered to the glass substrate, to near its sol-gel transition (approximately 80° C.), pressing the end of the wax-paper container into the softened film, and cooling to room temperature to re-solidify the film.
The 4 and 7 cm wax paper containers, having their bottom ends secured with LDL or soybean oil gel film, were then loaded approximately one-third full with dry Metro-Mix® 360 growing media. One regenerated sugarcane plantlet was then added to each container. […]

For “poly(lactide-b-dimethylsiloxane-b-lactide) [LDL]”, the “discoloration of plantlet shoots in contact with the closure (phytotoxicity)” value was “no discoloration”.
